Experimental data: PubChem BioAssay (NCI)
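Tested at 5 concentrations; 48 h exposure; 96-well plates; endpoints linearly interpolated, else capped at highest concentration. At the TGI there is no net growth.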

How the values were obtained:
Assay in all cases: growth of human tumour cells (NCI), 48 h
SK-MEL-2 melanoma = system: SK-MEL-2 melanoma
UO-31 renal = system: UO-31 renal
OVCAR-3 ovarian = system: OVCAR-3 ovarian
SF-268 CNS = system: SF-268 CNS
HCC-2998 colon = system: HCC-2998 colon
NCI-H460 lung = system: NCI-H460 lung
A549 NSCLC = system: A549 NSCLC
MOLT-4 leukemia = system: MOLT-4 leukemia
RPMI-8226 leukemia = system: RPMI-8226 leukemia
M14 melanoma = system: M14 melanoma

Compound: N#CC1(C#N)NC(c2cccs2)C(C#N)(C#N)NC1c1cccs1 (stereo not given)
- TGI (SK-MEL-2 melanoma): 50.5 µM
- TGI (UO-31 renal): > 100 µM
- TGI (OVCAR-3 ovarian): 67.8 µM
- TGI (SF-268 CNS): > 100 µM
- TGI (HCC-2998 colon): 93.3 µM
- TGI (NCI-H460 lung): > 100 µM
- TGI (A549 NSCLC): > 100 µM
- TGI (MOLT-4 leukemia): 60.2 µM
- TGI (RPMI-8226 leukemia): 73.1 µM
- TGI (M14 melanoma): > 100 µM

Compound: COC(=O)C1CCC(=S)N1C(=O)c1ccccc1 (stereo not given)
- TGI (SK-MEL-2 melanoma): > 100 µM
- TGI (UO-31 renal): > 100 µM
- TGI (OVCAR-3 ovarian): > 100 µM
- TGI (SF-268 CNS): > 100 µM
- TGI (HCC-2998 colon): > 100 µM
- TGI (NCI-H460 lung): > 100 µM
- TGI (A549 NSCLC): > 100 µM
- TGI (MOLT-4 leukemia): 90.3 µM
- TGI (RPMI-8226 leukemia): > 100 µM
- TGI (M14 melanoma): > 100 µM

Compound: Cc1ccc(OCC2OC(n3cnc4c(Cl)nc(N)nc43)CC2Oc2ccc(C)cc2)cc1 (stereo not given)
- TGI (SK-MEL-2 melanoma): > 56.9 µM
- TGI (UO-31 renal): 13.3 µM
- TGI (OVCAR-3 ovarian): > 63.9 µM
- TGI (SF-268 CNS): > 100 µM
- TGI (HCC-2998 colon): > 57.4 µM
- TGI (NCI-H460 lung): > 100 µM
- TGI (A549 NSCLC): > 100 µM
- TGI (MOLT-4 leukemia): > 100 µM
- TGI (RPMI-8226 leukemia): > 100 µM
- TGI (M14 melanoma): > 100 µM

Compound: CCOc1ccc(N/C(=C(/C(Cl)=C(/Cl)N(CC)CC)[N+](=O)[O-])n2nnc3ccccc32)cc1
- TGI (SK-MEL-2 melanoma): 68.8 µM
- TGI (UO-31 renal): 45.2 µM
- TGI (OVCAR-3 ovarian): 24.3 µM
- TGI (SF-268 CNS): 36.2 µM
- TGI (HCC-2998 colon): > 100 µM
- TGI (NCI-H460 lung): > 100 µM
- TGI (A549 NSCLC): > 100 µM
- TGI (MOLT-4 leukemia): > 100 µM
- TGI (RPMI-8226 leukemia): > 100 µM
- TGI (M14 melanoma): 79 µM

Compound: O=[N+]([O-])c1ccc2sc(C=Nc3cnccn3)cc2c1
- TGI (SK-MEL-2 melanoma): 75.2 µM
- TGI (UO-31 renal): > 100 µM
- TGI (OVCAR-3 ovarian): > 100 µM
- TGI (SF-268 CNS): > 100 µM
- TGI (HCC-2998 colon): 40.7 µM
- TGI (NCI-H460 lung): > 100 µM
- TGI (A549 NSCLC): > 100 µM
- TGI (MOLT-4 leukemia): 34.3 µM
- TGI (RPMI-8226 leukemia): 52.9 µM
- TGI (M14 melanoma): > 100 µM

Compound: COc1ccc2c3c1OC1C(=O)C=CC4(CC2)N(C)CCC314 (stereo not given)
- TGI (SK-MEL-2 melanoma): 54.3 µM
- TGI (UO-31 renal): 78.5 µM
- TGI (OVCAR-3 ovarian): > 100 µM
- TGI (SF-268 CNS): 91 µM
- TGI (HCC-2998 colon): 27.4 µM
- TGI (NCI-H460 lung): 71.1 µM
- TGI (A549 NSCLC): 84.1 µM
- TGI (MOLT-4 leukemia): 59 µM
- TGI (RPMI-8226 leukemia): 45.6 µM
- TGI (M14 melanoma): 49.6 µM

Compound: CC(C)CNc1nc2ncnc(N)c2[nH]1
- TGI (SK-MEL-2 melanoma): > 100 µM
- TGI (UO-31 renal): > 100 µM
- TGI (OVCAR-3 ovarian): > 100 µM
- TGI (SF-268 CNS): > 100 µM
- TGI (HCC-2998 colon): > 100 µM
- TGI (NCI-H460 lung): > 100 µM
- TGI (A549 NSCLC): > 100 µM
- TGI (MOLT-4 leukemia): > 100 µM
- TGI (RPMI-8226 leukemia): > 100 µM
- TGI (M14 melanoma): > 100 µM

Compound: O=C1CCCCC/C1=C\c1ccc([N+](=O)[O-])cc1
- TGI (SK-MEL-2 melanoma): > 100 µM
- TGI (UO-31 renal): 79.7 µM
- TGI (OVCAR-3 ovarian): 73.2 µM
- TGI (SF-268 CNS): 82 µM
- TGI (HCC-2998 colon): 33.1 µM
- TGI (NCI-H460 lung): 39.4 µM
- TGI (A549 NSCLC): > 100 µM
- TGI (MOLT-4 leukemia): > 100 µM
- TGI (RPMI-8226 leukemia): 97 µM
- TGI (M14 melanoma): > 100 µM

Compound: O=C1C[C@@H](C(=O)OCc2ccccc2)NC(=O)C[C@@H](C(=O)OCc2ccccc2)NC(=O)C[C@@H](C(=O)OCc2ccccc2)N1
- TGI (SK-MEL-2 melanoma): 66.1 µM
- TGI (UO-31 renal): > 100 µM
- TGI (OVCAR-3 ovarian): > 100 µM
- TGI (SF-268 CNS): 85.8 µM
- TGI (HCC-2998 colon): > 100 µM
- TGI (NCI-H460 lung): > 100 µM
- TGI (A549 NSCLC): > 100 µM
- TGI (MOLT-4 leukemia): 27.3 µM
- TGI (RPMI-8226 leukemia): > 100 µM
- TGI (M14 melanoma): > 100 µM

Compound: C/C=C/c1cc(=O)c([C@@H]2OC(=O)c3cc(OC)cc(OC)c32)co1
- TGI (SK-MEL-2 melanoma): > 100 µM
- TGI (UO-31 renal): > 100 µM
- TGI (OVCAR-3 ovarian): 64.3 µM
- TGI (SF-268 CNS): > 100 µM
- TGI (HCC-2998 colon): 90 µM
- TGI (NCI-H460 lung): > 100 µM
- TGI (A549 NSCLC): > 100 µM
- TGI (MOLT-4 leukemia): > 100 µM
- TGI (RPMI-8226 leukemia): > 100 µM
- TGI (M14 melanoma): > 100 µM

Compound: Cc1cc(S(=O)(=O)N/C(=C(\C#N)C(=O)c2ccc(Cl)cc2)[n+]2ccc(N(C)C)cc2)c([S-])cc1Cl
- TGI (SK-MEL-2 melanoma): 83.4 µM
- TGI (UO-31 renal): > 100 µM
- TGI (OVCAR-3 ovarian): > 100 µM
- TGI (SF-268 CNS): > 100 µM
- TGI (HCC-2998 colon): > 100 µM
- TGI (NCI-H460 lung): > 100 µM
- TGI (A549 NSCLC): > 100 µM
- TGI (MOLT-4 leukemia): > 100 µM
- TGI (RPMI-8226 leukemia): > 100 µM
- TGI (M14 melanoma): > 100 µM

Compound: O=S(=O)(c1ccc(NC2=NC(c3ccc(O)cc3)(c3ccccc3O)c3ccccc32)cc1)c1ccc(NC2=NC(c3ccc(O)cc3)(c3ccccc3O)c3ccccc32)cc1 (stereo not given)
- TGI (SK-MEL-2 melanoma): 22.9 µM
- TGI (UO-31 renal): > 100 µM
- TGI (OVCAR-3 ovarian): > 100 µM
- TGI (SF-268 CNS): > 44.5 µM
- TGI (HCC-2998 colon): 15.4 µM
- TGI (NCI-H460 lung): 47.5 µM
- TGI (A549 NSCLC): > 100 µM
- TGI (MOLT-4 leukemia): 60.1 µM
- TGI (RPMI-8226 leukemia): > 100 µM
- TGI (M14 melanoma): > 29.2 µM

Compound: O=C(NCCCCCCCCCCCCNC(=O)Nc1cccc2ccccc12)Nc1cccc2ccccc12
- TGI (SK-MEL-2 melanoma): 35.7 µM
- TGI (UO-31 renal): 33.9 µM
- TGI (OVCAR-3 ovarian): 30.3 µM
- TGI (SF-268 CNS): 31.3 µM
- TGI (HCC-2998 colon): 27.8 µM
- TGI (NCI-H460 lung): 29.4 µM
- TGI (A549 NSCLC): 32.9 µM
- TGI (MOLT-4 leukemia): 42.2 µM
- TGI (RPMI-8226 leukemia): 37.1 µM
- TGI (M14 melanoma): 43.6 µM

Compound: NC(=O)NNc1nc(-c2ccccc2)cs1
- TGI (SK-MEL-2 melanoma): > 100 µM
- TGI (UO-31 renal): > 100 µM
- TGI (OVCAR-3 ovarian): > 100 µM
- TGI (SF-268 CNS): > 100 µM
- TGI (HCC-2998 colon): > 100 µM
- TGI (NCI-H460 lung): > 100 µM
- TGI (A549 NSCLC): > 100 µM
- TGI (MOLT-4 leukemia): > 100 µM
- TGI (RPMI-8226 leukemia): > 100 µM
- TGI (M14 melanoma): > 100 µM

Compound: Cc1ccc2c(=O)cc(-c3ccc(Cl)s3)[nH]c2n1
- TGI (SK-MEL-2 melanoma): > 100 µM
- TGI (UO-31 renal): 0.301 µM
- TGI (OVCAR-3 ovarian): > 100 µM
- TGI (SF-268 CNS): > 81.6 µM
- TGI (HCC-2998 colon): 25.9 µM
- TGI (NCI-H460 lung): > 100 µM
- TGI (A549 NSCLC): > 29.3 µM
- TGI (MOLT-4 leukemia): > 100 µM
- TGI (RPMI-8226 leukemia): 4.08 µM
- TGI (M14 melanoma): > 100 µM
